In US10100056B2, “SHIP1 modulators and methods related thereto” (Aquinox Pharmaceuticals (Canada) Inc., priority 2013, dated 2018):

System: Akt phosphorylation in Molt-4 (PTEN-/SHIP1+) cells
Test: Akt phosphorylation in lymphocytes (Western blot, IGF-1 stimulated)
Assay type: cell-based
Set-up: key: +: inhibits Akt phosphorylation at 30 μM; −: no effect on Akt phosphorylation at 30 μM
Conditions: 30 μM; Molt-4 (SHIP1+) cells, IGF-1 100 ng/mL
Method: Molt-4 (PTEN-/SHIP1+) cells are starved in serum free RPMI for overnight. In a 15 mL conical tube, 2-3 million serum starved cells (1 million cells per mL) are treated with various concentrations of test compound ([…]) for 30 min at 37° C. followed by stimulation with 100 ng/mL of IGF-1 for 1 hour at 37° C. After stimulation, cells are washed once with ice-cold DPBS and lysed with Lysis Buffer (20 mM Tris-HCl, pH 7.5, 140 mM NaCl, 1% NP-40, Complete Mini Protease Inhibitor Cocktail, 10 mM NaF, 1 mM Na3VO4, 1 mM β-glycerolphosphate) on ice for 30 min with vortexing every 10 min. Samples are then centrifuged at 13,000 rpm for 20 min, and supernatants are collected as total cell lysate samples. Protein concentration is determined using bicinchonic acid assay, and about 15 μg of total protein from each sample is loaded and separated on a 4-12% Tris-Glycine gel. After SDS-PAGE, proteins are transferred from the gel to a nitrocellulose membrane. The membrane is blocked in 5% BSA in PBS containing 0.1% Tween-20 (PBS-T) for 1 hour at room temperature before probing with primary antibodies for overnight at 4° C. The following antibodies are used: mouse anti-SHIP1 (1:500 dilution; Santa Cruz, Calif., USA), rabbit anti-phospho-Akt (Ser473) (1:1000 dilution; Cell Signaling Technologies, MA, USA), rabbit anti-Akt (1:1000; Cell Signaling Technologies, MA, USA), and rabbit anti-actin (1:2000; Cell Signaling Technologies, MA, USA). The membrane is then incubated with goat anti-rabbit or anti-mouse secondary antibodies (1:3000) for 1 hour at room temperature. Target proteins on the membrane are detected with ECL solution and exposed on a film.

CN(C)C[C@H]1C2=C(CC[C@@H]1[C@@]1(C)CC[C@H](O)C[C@@H]1CO)C(C)(C)CC2 [Cpd. No. 3, (1S,3S,4R)-4-((4R,5S)-4-((dimethylamino)methyl)-1,1-dimethyl-2,3,4,5,6,7-hexahydro-1H-inden-5-yl)-3-(hydroxymethyl)-4-methylcyclohexanol]
Molt-4 (SHIP+): inhibition of Akt phosphorylation: +

C=C1CC[C@H]2[C@H](O)[C@@H]([C@@]3(C)CC[C@H](O)C[C@@H]3CCN3CCCC3)CC[C@]12C [Cpd. No. 11, (3aR,4R,5R,7aS)-5-((1S,2S,4S)-4-hydroxy-1-methyl-2-(2-(pyrrolidin-1-yl)ethyl)cyclohexyl)-7a-methyl-1-methyleneoctahydro-1H-inden-4-ol]
Molt-4 (SHIP+): inhibition of Akt phosphorylation: +

C=C1CC[C@H]2[C@H](CNC(=O)C(C)(C)C)[C@@H]([C@@]3(C)CC[C@H](O)C[C@@H]3CO)CC[C@]12C [Cpd. No. 20, N-(((3aS,4R,5S,7aS)-5-((1R,2S,4S)-4-hydroxy-2-(hydroxymethyl)-1-methylcyclohexyl)-7a-methyl-1-methyleneoctahydro-1H-inden-4-yl)methyl)pivalamide]
Molt-4 (SHIP+): inhibition of Akt phosphorylation: +

C=C1CC[C@H]2[C@H](CNC(=O)C(C)C)[C@@H]([C@@]3(C)CC[C@H](O)C[C@@H]3CO)CC[C@]12C [Cpd. No. 21, N-(((3aS,4R,5S,7aS)-5-((1R,2S,4S)-4-hydroxy-2-(hydroxymethyl)-1-methylcyclohexyl)-7a-methyl-1-methyleneoctahydro-1H-inden-4-yl)methyl)isobutyramide]
Molt-4 (SHIP+): inhibition of Akt phosphorylation: +

C=C1CC[C@H]2[C@H](CNC(=O)CC)[C@@H]([C@@]3(C)CC[C@H](O)C[C@@H]3CO)CC[C@]12C [Cpd. No. 22, N-(((3aS,4R,5S,7aS)-5-((1R,2S,4S)-4-hydroxy-2-(hydroxymethyl)-1-methylcyclohexyl)-7a-methyl-1-methyleneoctahydro-1H-inden-4-yl)methyl)propionamide]
Molt-4 (SHIP+): inhibition of Akt phosphorylation: +

C=C1CC[C@H]2[C@H](CNC(=O)CCC)[C@@H]([C@@]3(C)CC[C@H](O)C[C@@H]3CO)CC[C@]12C [Cpd. No. 23, N-(((3aS,4R,5S,7aS)-5-((1R,2S,4S)-4-hydroxy-2-(hydroxymethyl)-1-methylcyclohexyl)-7a-methyl-1-methyleneoctahydro-1H-inden-4-yl)methyl)butyramide]
Molt-4 (SHIP+): inhibition of Akt phosphorylation: +

C=C1CC[C@H]2[C@H](CNC(=O)CCCC)[C@@H]([C@@]3(C)CC[C@H](O)C[C@@H]3CO)CC[C@]12C [Cpd. No. 24, N-(((3aS,4R,5S,7aS)-5-((1R,2S,4S)-4-hydroxy-2-(hydroxymethyl)-1-methylcyclohexyl)-7a-methyl-1-methyleneoctahydro-1H-inden-4-yl)methyl)pentanamide]
Molt-4 (SHIP+): inhibition of Akt phosphorylation: +

C=C1CC[C@H]2[C@H](CCN)[C@@H]([C@@]3(C)CC[C@H](O)C[C@@H]3CO)CC[C@]12C [Cpd. No. 29, (1S,3S,4R)-4-((3aS,4R,5S,7aS)-4-(2-aminoethyl)-7a-methyl-1-methyleneoctahydro-1H-inden-5-yl)-3-(hydroxymethyl)-4-methylcyclohexanol]
Molt-4 (SHIP+): inhibition of Akt phosphorylation: +

C=C1CC[C@H]2[C@H](CNCc3cc(OC)cc(OC)c3)[C@@H]([C@@]3(C)CC[C@H](O)C[C@@H]3CO)CC[C@]12C [Cpd. No. 32, (1S,3S,4R)-4-((3aS,4R,5S,7aS)-4-((3,5-dimethoxybenzylamino)methyl)-7a-methyl-1-methyleneoctahydro-1H-inden-5-yl)-3-(hydroxymethyl)-4-methylcyclohexanol]
Molt-4 (SHIP+): inhibition of Akt phosphorylation: +

C=C1CC[C@H]2[C@H](CNCc3ccc4c(c3)OCO4)[C@@H]([C@@]3(C)CC[C@H](O)C[C@@H]3CO)CC[C@]12C [Cpd. No. 34, (1S,3S,4R)-4-((3aS,4R,5S,7aS)-4-((benzo[d][1,3]dioxol-5-ylmethylamino)methyl)-7a-methyl-1-methyleneoctahydro-1H-inden-5-yl)-3-(hydroxymethyl)-4-methylcyclohexanol]
Molt-4 (SHIP+): inhibition of Akt phosphorylation: +

C=C1CC[C@H]2[C@H](O)[C@@H]([C@@]3(C)CC[C@H](O)C[C@@H]3CCN3CCN(C)CC3)CC[C@]12C [Cpd. No. 48, (3aR,4R,5R,7aS)-5-((1S,2S,4S)-4-hydroxy-1-methyl-2-(2-(4-methylpiperazin-1-yl)ethyl)cyclohexyl)-7a-methyl-1-methyleneoctahydro-1H-inden-4-ol]
Molt-4 (SHIP+): inhibition of Akt phosphorylation: +

C=C1CC[C@H]2[C@H](O)[C@@H]([C@@]3(C)CC[C@H](O)C[C@@H]3CCn3ccnc3)CC[C@]12C [Cpd. No. 50, (3aR,4R,5R,7aS)-5-((1S,2S,4S)-2-(2-(1H-imidazol-1-yl)ethyl)-4-hydroxy-1-methylcyclohexyl)-7a-methyl-1-methyleneoctahydro-1H-inden-4-ol]
Molt-4 (SHIP+): inhibition of Akt phosphorylation: +

C=C1CC[C@H]2[C@H](O)[C@@H]([C@@]3(C)CC[C@H](O)C[C@@H]3CCOc3ccccn3)CC[C@]12C [Cpd. No. 57, (3aR,4R,5R,7aS)-5-((1S,2S,4S)-4-hydroxy-1-methyl-2-(2-(pyridin-2-yloxy)ethyl)cyclohexyl)-7a-methyl-1-methyleneoctahydro-1H-inden-4-ol]
Molt-4 (SHIP+): inhibition of Akt phosphorylation: +

C=C1CC[C@H]2[C@H](CNC(=O)c3ccco3)[C@@H]([C@@]3(C)CC[C@H](O)C[C@@H]3CO)CC[C@]12C [Cpd. No. 81, N-(((3aS,4R,5S,7aS)-5-((1R,2S,4S)-4-hydroxy-2-(hydroxymethyl)-1-methylcyclohexyl)-7a-methyl-1-methyleneoctahydro-1H-inden-4-yl)methyl)furan-2-carboxamide]
Molt-4 (SHIP+): inhibition of Akt phosphorylation: +

C=C1CC[C@H]2[C@H](CNC(=O)C3CC3)[C@@H]([C@@]3(C)CC[C@H](O)C[C@@H]3CO)CC[C@]12C [Cpd. No. 82, N-(((3aS,4R,5S,7aS)-5-((1R,2S,4S)-4-hydroxy-2-(hydroxymethyl)-1-methylcyclohexyl)-7a-methyl-1-methyleneoctahydro-1H-inden-4-yl)methyl)cyclopropanecarboxamide]
Molt-4 (SHIP+): inhibition of Akt phosphorylation: +

C=C1CC[C@H]2[C@H](CNC(=O)C3CCCCC3)[C@@H]([C@@]3(C)CC[C@H](O)C[C@@H]3CO)CC[C@]12C [Cpd. No. 83, N-(((3aS,4R,5S,7aS)-5-((1R,2S,4S)-4-hydroxy-2-(hydroxymethyl)-1-methylcyclohexyl)-7a-methyl-1-methyleneoctahydro-1H-inden-4-yl)methyl)cyclohexanecarboxamide]
Molt-4 (SHIP+): inhibition of Akt phosphorylation: +

C=C1CC[C@H]2[C@H](CNC(=O)NCC)[C@@H]([C@@]3(C)CC[C@H](O)C[C@@H]3CO)CC[C@]12C [Cpd. No. 84, 1-ethyl-3-(((3aS,4R,5S,7aS)-5-((1R,2S,4S)-4-hydroxy-2-(hydroxymethyl)-1-methylcyclohexyl)-7a-methyl-1-methyleneoctahydro-1H-inden-4-yl)methyl)urea]
Molt-4 (SHIP+): inhibition of Akt phosphorylation: +

C=C1CC[C@H]2[C@H](CNC(=S)NC)[C@@H]([C@@]3(C)CC[C@H](O)C[C@@H]3CO)CC[C@]12C [Cpd. No. 85, 1-(((3aS,4R,5S,7aS)-5-((1R,2S,4S)-4-hydroxy-2-(hydroxymethyl)-1-methylcyclohexyl)-7a-methyl-1-methyleneoctahydro-1H-inden-4-yl)methyl)-3-methylthiourea]
Molt-4 (SHIP+): inhibition of Akt phosphorylation: +

C=C1CC[C@H]2[C@H](CNC(=O)C(F)(F)F)[C@@H]([C@@]3(C)CC[C@H](O)C[C@@H]3CO)CC[C@]12C [Cpd. No. 86, 2,2,2-trifluoro-N-(((3aS,4R,5S,7aS)-5-((1R,2S,4S)-4-hydroxy-2-(hydroxymethyl)-1-methylcyclohexyl)-7a-methyl-1-methyleneoctahydro-1H-inden-4-yl)methyl)acetamide]
Molt-4 (SHIP+): inhibition of Akt phosphorylation: +

C=C1CC[C@H]2[C@H](CC#N)[C@@H]([C@@]3(C)CC[C@H](O)C[C@@H]3CO)CC[C@]12C [Cpd. No. 87, 2-((3aS,4R,5S,7aS)-5-((1R,2S,4S)-4-hydroxy-2-(hydroxymethyl)-1-methylcyclohexyl)-7a-methyl-1-methyleneoctahydro-1H-inden-4-yl)acetonitrile]
Molt-4 (SHIP+): inhibition of Akt phosphorylation: +

C=C1CC[C@H]2[C@H](CNOC)[C@@H]([C@@]3(C)CC[C@H](O)C[C@@H]3CO)CC[C@]12C [Cpd. No. 88, (1S,3S,4R)-3-(hydroxymethyl)-4-((3aS,4R,5S,7aS)-4-((methoxyamino)methyl)-7a-methyl-1-methyleneoctahydro-1H-inden-5-yl)-4-methylcyclohexanol]
Molt-4 (SHIP+): inhibition of Akt phosphorylation: +

C=C1CC[C@H]2[C@H](CNC#N)[C@@H]([C@@]3(C)CC[C@H](O)C[C@@H]3CO)CC[C@]12C [Cpd. No. 89, N-(((3aS,4R,5S,7aS)-5-((1R,2S,4S)-4-hydroxy-2-(hydroxymethyl)-1-methylcyclohexyl)-7a-methyl-1-methyleneoctahydro-1H-inden-4-yl)methyl)cyanamide]
Molt-4 (SHIP+): inhibition of Akt phosphorylation: +
